{
  "source": "patent US9498462B2",
  "about": "“Doxepin trans isomers and isomeric mixtures and methods of using the same to treat sleep disorders” (Pernix Sleep Inc., priority 2006, dated 2016)",
  "origin": "cited, not measured here",
  "key": {"melatonin MT2 receptor": {"target": "T1, melatonin MT2 receptor (Homo sapiens, UniProt P49286)", "T1 sequence (P49286 1-362)": "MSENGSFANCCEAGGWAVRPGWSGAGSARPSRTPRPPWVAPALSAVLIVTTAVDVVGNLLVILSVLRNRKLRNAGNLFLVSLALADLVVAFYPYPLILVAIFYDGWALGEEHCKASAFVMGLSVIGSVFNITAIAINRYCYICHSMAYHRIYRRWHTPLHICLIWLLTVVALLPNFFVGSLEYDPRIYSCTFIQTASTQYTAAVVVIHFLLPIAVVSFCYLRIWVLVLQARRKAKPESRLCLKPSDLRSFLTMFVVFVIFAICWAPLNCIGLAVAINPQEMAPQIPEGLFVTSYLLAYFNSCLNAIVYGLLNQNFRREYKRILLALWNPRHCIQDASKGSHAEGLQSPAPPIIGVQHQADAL"}, "melatonin MT1 receptor": {"target": "melatonin MT1 receptor (Homo sapiens, UniProt P48039)", "sequence (P48039 whole entry)": "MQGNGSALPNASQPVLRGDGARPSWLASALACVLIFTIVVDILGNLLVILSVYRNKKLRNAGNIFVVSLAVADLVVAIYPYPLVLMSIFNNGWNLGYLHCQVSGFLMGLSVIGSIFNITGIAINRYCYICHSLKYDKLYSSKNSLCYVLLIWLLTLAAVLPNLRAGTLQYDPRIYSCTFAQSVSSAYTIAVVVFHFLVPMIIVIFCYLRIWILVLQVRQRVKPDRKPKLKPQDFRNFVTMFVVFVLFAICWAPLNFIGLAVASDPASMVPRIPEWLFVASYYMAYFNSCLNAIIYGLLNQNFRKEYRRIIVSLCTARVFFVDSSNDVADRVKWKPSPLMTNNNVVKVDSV"}},
  "data": [
    {"smiles": "CCC(=O)NCC[C@@H]1CCc2ccc3c(c21)CCO3", "note": "[Ramelteon, (S)—N-[2-(1,6,7,8-tetrahydro-2H-indeno-[5,4-b]furan-8-yl)ethyl]propionamide]", "values": [
      {"measurement": "affinity for melatonin MT2 receptor", "setting": "melatonin MT2 receptor", "value": "high affinity"},
      {"measurement": "affinity for melatonin MT1 receptor", "setting": "melatonin MT1 receptor", "value": "high affinity"}
    ]}
  ]
}
